Measured values reported in patent US9790228B2, “Heterocyclic kinase inhibitors” (Intellikine LLC, priority 2008, dated 2017).
pEC50, pIC50: −log10 of the molar value.

target: p110γ (Homo sapiens (Human), UniProt P48736); assay: PI3K γ inhibition assay (TLC lipid kinase or HTRF); format: biochemical; settings: not given
Outline: (§1)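 IC50 from TLC lipid kinase assay (25 mM HEPES pH 7.4, 10 mM MgCl2, 100 μg/ml phosphatidylinositol, 10 or 100 μM γ-32P-ATP, 5 min RT, phosphorimager) at 10–12 two-fold dilutions, or HTRF (10 μM PIP2, 10 μM ATP, 1 h RT) measuring PIP3 by TR-FRET; 2% DMSO final.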

Chain of p110γ (P48736 whole entry): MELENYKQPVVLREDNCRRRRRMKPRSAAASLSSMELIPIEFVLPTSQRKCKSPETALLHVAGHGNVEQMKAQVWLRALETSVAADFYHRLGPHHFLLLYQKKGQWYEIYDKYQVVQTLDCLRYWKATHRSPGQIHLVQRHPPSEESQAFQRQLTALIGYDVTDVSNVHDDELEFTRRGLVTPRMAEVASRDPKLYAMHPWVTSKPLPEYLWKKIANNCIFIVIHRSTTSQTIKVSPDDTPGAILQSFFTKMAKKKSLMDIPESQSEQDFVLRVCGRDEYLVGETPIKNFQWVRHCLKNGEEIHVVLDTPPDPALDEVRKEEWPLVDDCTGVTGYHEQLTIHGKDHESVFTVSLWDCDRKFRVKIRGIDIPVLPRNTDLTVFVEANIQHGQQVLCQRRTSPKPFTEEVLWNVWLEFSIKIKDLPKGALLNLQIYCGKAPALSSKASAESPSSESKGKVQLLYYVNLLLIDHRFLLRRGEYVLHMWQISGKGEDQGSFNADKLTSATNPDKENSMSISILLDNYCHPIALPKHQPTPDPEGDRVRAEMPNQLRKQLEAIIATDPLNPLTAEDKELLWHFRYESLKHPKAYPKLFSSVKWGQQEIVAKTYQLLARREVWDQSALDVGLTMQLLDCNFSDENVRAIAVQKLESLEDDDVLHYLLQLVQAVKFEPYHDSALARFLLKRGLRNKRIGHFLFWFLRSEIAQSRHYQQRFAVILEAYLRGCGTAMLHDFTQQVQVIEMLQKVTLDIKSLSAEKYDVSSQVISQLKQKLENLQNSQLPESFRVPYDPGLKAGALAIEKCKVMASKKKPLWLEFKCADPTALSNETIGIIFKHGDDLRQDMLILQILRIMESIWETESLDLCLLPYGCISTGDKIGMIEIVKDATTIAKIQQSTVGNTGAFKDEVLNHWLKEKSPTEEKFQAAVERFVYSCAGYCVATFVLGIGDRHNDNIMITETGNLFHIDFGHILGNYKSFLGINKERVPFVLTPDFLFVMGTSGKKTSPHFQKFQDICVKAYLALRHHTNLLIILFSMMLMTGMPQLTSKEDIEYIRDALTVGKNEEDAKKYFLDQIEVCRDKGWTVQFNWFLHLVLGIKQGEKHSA

Row | Compound | pIC50
1 | Nc1ncc(-c2nn(Cc3cc4ccccc4nc3-c3ccccc3F)c3nccc(N)c23)cn1 [Compound 158] | < 6.00
2 | Cc1ccncc1-c1nc2ccccc2cc1Cn1nc(-c2cccc(O)c2)c2c(N)ncnc21 [Compound 78] | < 6.00
3 | CC(=O)Nc1nc2ccc(-c3nn(Cc4cc5ccccc5nc4N4CCN(C)CC4)c4ncnc(N)c34)cc2[nH]1 [Compound 185] | < 6.00
4 | CCN(CC)c1nc2ccccc2cc1Cn1nc(-c2cc(O)cc(F)c2)c2c(N)ncnc21 [Compound 68] | 6.00 to 7.00
5 | Cc1ccncc1-c1nc2ccccc2cc1Cn1nc(-c2cc(O)cc(F)c2)c2c(N)ncnc21 [Compound 56] | > 7.00
6 | CCN1CCN(c2nc3ccccc3cc2Cn2nc(-c3cc(O)cc(F)c3)c3c(N)ncnc32)CC1 [Compound 38] | < 6.00
7 | Cc1ccccc1-c1nc2ccccc2cc1Cn1nc(-c2ccc3nc(N)ccc3c2)c2c(N)ncnc21 [Compound 131] | > 7.00
8 | Nc1ncnc2c1c(-c1cccc(O)c1)nn2Cc1nc2ccccc2nc1N1CCCC1 [Compound 105] | 6.00 to 7.00
9 | Nc1nc2cc(-c3nn(Cc4cc5ccccc5nc4-c4ccccc4F)c4ncnc(N)c34)ccc2[nH]1 [Compound 152] | > 7.00
10 | CN1CCN(c2nc3ccccc3nc2Cn2nc(-c3ccc4nc(N)sc4c3)c3c(N)ncnc32)CC1 [Compound 199] | > 7.00
11 | Nc1ncnc2c1c(-c1cccc(O)c1)nn2Cc1cc2ccccc2nc1-c1ccccc1 [Compound 148] | > 7.00
12 | CN1CCN(c2ncccc2Cn2nc(-c3cc(O)cc(F)c3)c3c(N)ncnc32)CC1 [Compound 200] | < 6.00
13 | CC(C)N(C)c1nc2ccccc2cc1Cn1nc(-c2cccc(O)c2)c2c(N)ncnc21 [Compound 150] | > 7.00
14 | Nc1nc2cc(-c3nn(Cc4cc5ccccc5nc4-c4ccccc4C(F)(F)F)c4ncnc(N)c34)ccc2[nH]1 [Compound 155] | < 6.00
15 | CC(C)N(C)c1nc2ccccc2cc1Cn1nc(-c2ccc3nc(N)sc3c2)c2c(N)ncnc21 [Compound 154] | 6.00 to 7.00
16 | Nc1ncnc2c1c(-c1cc(O)cc(F)c1)nn2Cc1cc2ccccc2nc1N1CCN(CCO)CC1 [Compound 34] | 6.00 to 7.00

target: p110δ/p85α (Homo sapiens (Human), UniProt O00329); assay: PI3K δ inhibition assay (TLC lipid kinase or HTRF); format: biochemical; settings: not given
Sequence (O00329 whole entry): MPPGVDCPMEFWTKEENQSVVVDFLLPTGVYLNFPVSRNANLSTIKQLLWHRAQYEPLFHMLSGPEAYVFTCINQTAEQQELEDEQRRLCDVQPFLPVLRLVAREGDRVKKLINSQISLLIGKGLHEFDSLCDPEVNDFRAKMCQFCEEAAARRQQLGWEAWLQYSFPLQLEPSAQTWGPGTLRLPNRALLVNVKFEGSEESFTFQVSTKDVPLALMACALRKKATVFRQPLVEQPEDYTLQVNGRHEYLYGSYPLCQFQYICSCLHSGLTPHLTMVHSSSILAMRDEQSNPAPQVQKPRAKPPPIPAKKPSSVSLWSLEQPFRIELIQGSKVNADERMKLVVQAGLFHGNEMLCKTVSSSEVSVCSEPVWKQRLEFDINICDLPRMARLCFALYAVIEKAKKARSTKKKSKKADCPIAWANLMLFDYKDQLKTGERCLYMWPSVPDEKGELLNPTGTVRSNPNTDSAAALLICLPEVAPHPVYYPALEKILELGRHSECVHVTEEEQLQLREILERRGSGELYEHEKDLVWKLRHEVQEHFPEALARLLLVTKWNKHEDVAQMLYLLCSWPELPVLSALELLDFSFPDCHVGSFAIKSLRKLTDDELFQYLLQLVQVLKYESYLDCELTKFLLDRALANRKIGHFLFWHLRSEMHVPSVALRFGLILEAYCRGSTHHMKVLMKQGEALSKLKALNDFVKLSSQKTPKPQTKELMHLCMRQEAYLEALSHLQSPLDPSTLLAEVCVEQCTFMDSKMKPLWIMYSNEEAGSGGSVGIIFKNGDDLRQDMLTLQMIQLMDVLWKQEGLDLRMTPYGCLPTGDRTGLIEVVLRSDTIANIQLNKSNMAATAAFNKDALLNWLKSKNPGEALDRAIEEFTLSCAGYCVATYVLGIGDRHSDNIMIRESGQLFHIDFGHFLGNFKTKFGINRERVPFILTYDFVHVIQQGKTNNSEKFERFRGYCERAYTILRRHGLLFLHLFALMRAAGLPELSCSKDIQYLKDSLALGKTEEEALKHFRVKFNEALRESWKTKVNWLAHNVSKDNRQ
Sequence (P27986 whole entry partner): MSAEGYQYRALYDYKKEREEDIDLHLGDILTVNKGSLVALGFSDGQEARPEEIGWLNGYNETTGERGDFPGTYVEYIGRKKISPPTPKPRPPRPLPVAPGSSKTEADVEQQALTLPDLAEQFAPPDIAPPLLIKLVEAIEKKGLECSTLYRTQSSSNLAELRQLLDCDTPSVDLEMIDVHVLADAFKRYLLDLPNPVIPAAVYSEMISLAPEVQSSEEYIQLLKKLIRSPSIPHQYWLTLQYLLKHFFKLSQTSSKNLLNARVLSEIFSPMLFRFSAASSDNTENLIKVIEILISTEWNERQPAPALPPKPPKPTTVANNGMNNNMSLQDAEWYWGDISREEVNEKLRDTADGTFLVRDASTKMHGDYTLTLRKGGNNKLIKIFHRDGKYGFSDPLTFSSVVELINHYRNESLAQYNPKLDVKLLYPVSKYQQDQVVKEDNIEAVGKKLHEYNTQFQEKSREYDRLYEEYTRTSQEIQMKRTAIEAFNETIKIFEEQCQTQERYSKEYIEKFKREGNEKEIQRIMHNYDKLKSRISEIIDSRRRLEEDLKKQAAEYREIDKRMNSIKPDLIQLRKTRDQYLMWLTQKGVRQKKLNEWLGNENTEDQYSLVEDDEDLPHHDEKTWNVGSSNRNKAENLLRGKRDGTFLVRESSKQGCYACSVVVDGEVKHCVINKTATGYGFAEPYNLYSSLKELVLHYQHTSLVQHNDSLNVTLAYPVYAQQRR
Outline: as §1

Row | Compound | pIC50
17 | Nc1ncc(-c2nn(Cc3cc4ccccc4nc3-c3ccccc3F)c3nccc(N)c23)cn1 [Compound 158] | < 6.00
18 | Cc1ccncc1-c1nc2ccccc2cc1Cn1nc(-c2cccc(O)c2)c2c(N)ncnc21 [Compound 78] | > 7.00
19 | CC(=O)Nc1nc2ccc(-c3nn(Cc4cc5ccccc5nc4N4CCN(C)CC4)c4ncnc(N)c34)cc2[nH]1 [Compound 185] | > 7.00
20 | CCN(CC)c1nc2ccccc2cc1Cn1nc(-c2cc(O)cc(F)c2)c2c(N)ncnc21 [Compound 68] | > 7.00
21 | Cc1ccncc1-c1nc2ccccc2cc1Cn1nc(-c2cc(O)cc(F)c2)c2c(N)ncnc21 [Compound 56] | > 7.00
22 | CCN1CCN(c2nc3ccccc3cc2Cn2nc(-c3cc(O)cc(F)c3)c3c(N)ncnc32)CC1 [Compound 38] | > 7.00
23 | Cc1ccccc1-c1nc2ccccc2cc1Cn1nc(-c2ccc3nc(N)ccc3c2)c2c(N)ncnc21 [Compound 131] | > 7.00
24 | Nc1ncnc2c1c(-c1cccc(O)c1)nn2Cc1nc2ccccc2nc1N1CCCC1 [Compound 105] | > 7.00
25 | Nc1nc2cc(-c3nn(Cc4cc5ccccc5nc4-c4ccccc4F)c4ncnc(N)c34)ccc2[nH]1 [Compound 152] | > 7.00
26 | CN1CCN(c2nc3ccccc3nc2Cn2nc(-c3ccc4nc(N)sc4c3)c3c(N)ncnc32)CC1 [Compound 199] | > 7.00
27 | Nc1ncnc2c1c(-c1cccc(O)c1)nn2Cc1cc2ccccc2nc1-c1ccccc1 [Compound 148] | > 7.00
28 | CN1CCN(c2ncccc2Cn2nc(-c3cc(O)cc(F)c3)c3c(N)ncnc32)CC1 [Compound 200] | > 7.00
29 | CC(C)N(C)c1nc2ccccc2cc1Cn1nc(-c2cccc(O)c2)c2c(N)ncnc21 [Compound 150] | > 7.00
30 | Nc1nc2cc(-c3nn(Cc4cc5ccccc5nc4-c4ccccc4C(F)(F)F)c4ncnc(N)c34)ccc2[nH]1 [Compound 155] | > 7.00
31 | CC(C)N(C)c1nc2ccccc2cc1Cn1nc(-c2ccc3nc(N)sc3c2)c2c(N)ncnc21 [Compound 154] | > 7.00
32 | Nc1ncnc2c1c(-c1cc(O)cc(F)c1)nn2Cc1cc2ccccc2nc1N1CCN(CCO)CC1 [Compound 34] | > 7.00

target: p110β/p85α (Homo sapiens, UniProt P42338); assay: PI3K β inhibition assay (TLC lipid kinase or HTRF); format: biochemical; settings: read-out: PI3K β IC50
Sequence (P42338 whole entry, looked up): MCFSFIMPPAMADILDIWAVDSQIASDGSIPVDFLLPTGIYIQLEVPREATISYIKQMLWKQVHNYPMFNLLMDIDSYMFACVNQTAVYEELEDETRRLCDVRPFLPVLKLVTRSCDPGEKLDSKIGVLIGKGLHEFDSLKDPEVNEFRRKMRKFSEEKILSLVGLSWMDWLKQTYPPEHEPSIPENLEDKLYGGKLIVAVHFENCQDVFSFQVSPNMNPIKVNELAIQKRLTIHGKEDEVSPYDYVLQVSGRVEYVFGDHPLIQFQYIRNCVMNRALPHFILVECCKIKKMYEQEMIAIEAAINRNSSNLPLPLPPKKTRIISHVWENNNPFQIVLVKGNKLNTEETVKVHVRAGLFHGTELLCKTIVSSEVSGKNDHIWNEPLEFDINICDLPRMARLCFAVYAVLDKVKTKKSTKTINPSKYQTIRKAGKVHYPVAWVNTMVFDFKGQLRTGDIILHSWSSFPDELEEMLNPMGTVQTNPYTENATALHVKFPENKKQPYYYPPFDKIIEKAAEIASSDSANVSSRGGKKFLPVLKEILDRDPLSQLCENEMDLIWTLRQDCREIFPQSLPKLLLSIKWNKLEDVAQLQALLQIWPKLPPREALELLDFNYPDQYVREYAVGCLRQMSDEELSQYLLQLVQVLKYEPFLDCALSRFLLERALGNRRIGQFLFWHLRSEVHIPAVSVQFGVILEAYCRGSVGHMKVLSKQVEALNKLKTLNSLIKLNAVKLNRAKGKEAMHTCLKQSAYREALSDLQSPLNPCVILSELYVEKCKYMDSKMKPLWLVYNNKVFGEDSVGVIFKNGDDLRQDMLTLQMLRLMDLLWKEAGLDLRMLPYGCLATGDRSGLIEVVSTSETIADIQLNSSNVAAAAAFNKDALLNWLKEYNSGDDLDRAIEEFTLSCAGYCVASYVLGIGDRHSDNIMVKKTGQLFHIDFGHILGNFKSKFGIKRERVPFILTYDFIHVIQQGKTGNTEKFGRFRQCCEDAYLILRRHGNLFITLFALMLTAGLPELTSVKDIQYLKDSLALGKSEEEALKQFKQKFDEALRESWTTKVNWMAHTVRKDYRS
Outline: as §1

Row | Compound | pIC50
33 | Nc1ncc(-c2nn(Cc3cc4ccccc4nc3-c3ccccc3F)c3nccc(N)c23)cn1 [Compound 158] | < 6.00
34 | Cc1ccncc1-c1nc2ccccc2cc1Cn1nc(-c2cccc(O)c2)c2c(N)ncnc21 [Compound 78] | < 6.00
35 | CC(=O)Nc1nc2ccc(-c3nn(Cc4cc5ccccc5nc4N4CCN(C)CC4)c4ncnc(N)c34)cc2[nH]1 [Compound 185] | 6.00 to 7.00
36 | CCN(CC)c1nc2ccccc2cc1Cn1nc(-c2cc(O)cc(F)c2)c2c(N)ncnc21 [Compound 68] | 6.00 to 7.00
37 | Cc1ccncc1-c1nc2ccccc2cc1Cn1nc(-c2cc(O)cc(F)c2)c2c(N)ncnc21 [Compound 56] | < 6.00
38 | CCN1CCN(c2nc3ccccc3cc2Cn2nc(-c3cc(O)cc(F)c3)c3c(N)ncnc32)CC1 [Compound 38] | > 7.00
39 | Cc1ccccc1-c1nc2ccccc2cc1Cn1nc(-c2ccc3nc(N)ccc3c2)c2c(N)ncnc21 [Compound 131] | < 6.00
40 | Nc1ncnc2c1c(-c1cccc(O)c1)nn2Cc1nc2ccccc2nc1N1CCCC1 [Compound 105] | < 6.00
41 | Nc1nc2cc(-c3nn(Cc4cc5ccccc5nc4-c4ccccc4F)c4ncnc(N)c34)ccc2[nH]1 [Compound 152] | < 6.00
42 | CN1CCN(c2nc3ccccc3nc2Cn2nc(-c3ccc4nc(N)sc4c3)c3c(N)ncnc32)CC1 [Compound 199] | > 7.00
43 | Nc1ncnc2c1c(-c1cccc(O)c1)nn2Cc1cc2ccccc2nc1-c1ccccc1 [Compound 148] | < 6.00
44 | CC(C)N(C)c1nc2ccccc2cc1Cn1nc(-c2cccc(O)c2)c2c(N)ncnc21 [Compound 150] | < 6.00

system: Balb/c splenic B cells; assay: B cell activation and proliferation assay (Alamar Blue); format: cell-based, mouse; settings: Mus musculus, B-cell
Experimental: The ability of one or more subject compounds to inhibit B cell activation and proliferation is determined according to standard procedures known in the art. For example, an in vitro cellular proliferation assay is established that measures the metabolic activity of live cells. The assay is performed in a 96 well microtiter plate using Alamar Blue reduction. Balb/c splenic B cells are purified over a Ficoll-Paque™ PLUS gradient followed by magnetic cell separation using a MACS B cell Isolation Kit (Miletenyi). Cells are plated in 90 ul at 50,000 cells/well in B Cell Media (RPMI+10% FBS+Penn/Strep+50 uM bME+5 mM HEPES). A compound disclosed herein is diluted in B Cell Media and added in a 10 ul volume. Plates are incubated for 30 min at 37 C and 5% CO2 (0.2% DMSO final concentration). A 50 ul B cell stimulation cocktail is then added containing either 10 ug/ml LPS or 5 ug/ml F(ab′)2 Donkey anti-mouse IgM plus 2 ng/ml recombinant mouse IL4 in B Cell Media. Plates are incubated for 72 hours at 37° C. and 5% CO2. A volume of 15 uL of Alamar Blue reagent is added to each well and plates are incubated for 5 hours at 37 C and 5% CO2. Alamar Blue fluoresce is read at 560Ex/590Em, and IC50 or EC50 values are calculated using GraphPad Prism 5.

Row | Compound | pEC50
45 | Nc1ncc(-c2nn(Cc3cc4ccccc4nc3-c3ccccc3F)c3nccc(N)c23)cn1 [Compound 158] | < 6.00
46 | Cc1ccncc1-c1nc2ccccc2cc1Cn1nc(-c2cccc(O)c2)c2c(N)ncnc21 [Compound 78] | 6.00 to 7.00
47 | CC(=O)Nc1nc2ccc(-c3nn(Cc4cc5ccccc5nc4N4CCN(C)CC4)c4ncnc(N)c34)cc2[nH]1 [Compound 185] | > 7.00
48 | CCN(CC)c1nc2ccccc2cc1Cn1nc(-c2cc(O)cc(F)c2)c2c(N)ncnc21 [Compound 68] | > 7.00
49 | Cc1ccncc1-c1nc2ccccc2cc1Cn1nc(-c2cc(O)cc(F)c2)c2c(N)ncnc21 [Compound 56] | > 7.00
50 | CCN1CCN(c2nc3ccccc3cc2Cn2nc(-c3cc(O)cc(F)c3)c3c(N)ncnc32)CC1 [Compound 38] | > 7.00
51 | Cc1ccccc1-c1nc2ccccc2cc1Cn1nc(-c2ccc3nc(N)ccc3c2)c2c(N)ncnc21 [Compound 131] | 6.00 to 7.00
52 | Nc1ncnc2c1c(-c1cccc(O)c1)nn2Cc1nc2ccccc2nc1N1CCCC1 [Compound 105] | 6.00 to 7.00
53 | Nc1nc2cc(-c3nn(Cc4cc5ccccc5nc4-c4ccccc4F)c4ncnc(N)c34)ccc2[nH]1 [Compound 152] | 6.00 to 7.00
54 | CN1CCN(c2nc3ccccc3nc2Cn2nc(-c3ccc4nc(N)sc4c3)c3c(N)ncnc32)CC1 [Compound 199] | > 7.00
55 | Nc1ncnc2c1c(-c1cccc(O)c1)nn2Cc1cc2ccccc2nc1-c1ccccc1 [Compound 148] | > 7.00
56 | CN1CCN(c2ncccc2Cn2nc(-c3cc(O)cc(F)c3)c3c(N)ncnc32)CC1 [Compound 200] | 6.00 to 7.00
57 | CC(C)N(C)c1nc2ccccc2cc1Cn1nc(-c2cccc(O)c2)c2c(N)ncnc21 [Compound 150] | > 7.00
58 | Nc1nc2cc(-c3nn(Cc4cc5ccccc5nc4-c4ccccc4C(F)(F)F)c4ncnc(N)c34)ccc2[nH]1 [Compound 155] | 6.00 to 7.00
59 | CC(C)N(C)c1nc2ccccc2cc1Cn1nc(-c2ccc3nc(N)sc3c2)c2c(N)ncnc21 [Compound 154] | > 7.00
60 | Nc1ncnc2c1c(-c1cc(O)cc(F)c1)nn2Cc1cc2ccccc2nc1N1CCN(CCO)CC1 [Compound 34] | > 7.00

target: p110α/p85α (Homo sapiens (Human), UniProt P42336); assay: PI3K α inhibition assay (TLC lipid kinase or HTRF); format: biochemical; settings: not given
Sequence (P42336 whole entry): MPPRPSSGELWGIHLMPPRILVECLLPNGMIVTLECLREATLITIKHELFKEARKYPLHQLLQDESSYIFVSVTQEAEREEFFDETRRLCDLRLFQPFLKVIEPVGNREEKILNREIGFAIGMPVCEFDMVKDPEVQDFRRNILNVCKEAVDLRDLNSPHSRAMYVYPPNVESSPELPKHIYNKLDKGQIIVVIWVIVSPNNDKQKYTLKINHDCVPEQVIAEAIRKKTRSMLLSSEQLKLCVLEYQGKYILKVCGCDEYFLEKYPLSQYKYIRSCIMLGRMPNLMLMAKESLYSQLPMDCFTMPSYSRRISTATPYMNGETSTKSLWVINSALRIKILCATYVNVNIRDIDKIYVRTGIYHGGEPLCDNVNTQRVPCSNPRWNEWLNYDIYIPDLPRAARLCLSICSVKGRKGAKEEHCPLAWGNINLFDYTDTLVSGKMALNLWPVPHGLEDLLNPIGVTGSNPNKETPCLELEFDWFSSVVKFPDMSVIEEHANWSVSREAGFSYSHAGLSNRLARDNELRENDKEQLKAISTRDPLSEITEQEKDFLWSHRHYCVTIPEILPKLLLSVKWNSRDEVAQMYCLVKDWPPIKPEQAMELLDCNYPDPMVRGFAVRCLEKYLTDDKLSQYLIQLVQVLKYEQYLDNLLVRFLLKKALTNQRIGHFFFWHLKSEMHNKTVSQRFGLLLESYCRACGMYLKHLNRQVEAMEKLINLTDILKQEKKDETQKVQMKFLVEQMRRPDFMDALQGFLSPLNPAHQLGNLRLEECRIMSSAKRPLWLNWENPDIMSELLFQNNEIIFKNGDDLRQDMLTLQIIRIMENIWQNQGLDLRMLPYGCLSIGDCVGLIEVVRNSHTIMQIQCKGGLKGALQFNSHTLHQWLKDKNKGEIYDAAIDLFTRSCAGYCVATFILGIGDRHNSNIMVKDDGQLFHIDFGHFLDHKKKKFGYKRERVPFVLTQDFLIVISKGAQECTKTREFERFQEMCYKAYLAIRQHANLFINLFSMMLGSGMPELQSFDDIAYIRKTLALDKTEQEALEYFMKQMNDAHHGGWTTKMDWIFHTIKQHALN
Sequence (P27986 whole entry partner): as the sequence (P27986 whole entry partner) above
Outline: as §1

Row | Compound | pIC50
61 | Nc1ncc(-c2nn(Cc3cc4ccccc4nc3-c3ccccc3F)c3nccc(N)c23)cn1 [Compound 158] | < 6.00
62 | Cc1ccncc1-c1nc2ccccc2cc1Cn1nc(-c2cccc(O)c2)c2c(N)ncnc21 [Compound 78] | < 6.00
63 | CC(=O)Nc1nc2ccc(-c3nn(Cc4cc5ccccc5nc4N4CCN(C)CC4)c4ncnc(N)c34)cc2[nH]1 [Compound 185] | < 6.00
64 | CCN(CC)c1nc2ccccc2cc1Cn1nc(-c2cc(O)cc(F)c2)c2c(N)ncnc21 [Compound 68] | < 6.00
65 | Cc1ccncc1-c1nc2ccccc2cc1Cn1nc(-c2cc(O)cc(F)c2)c2c(N)ncnc21 [Compound 56] | < 6.00
66 | CCN1CCN(c2nc3ccccc3cc2Cn2nc(-c3cc(O)cc(F)c3)c3c(N)ncnc32)CC1 [Compound 38] | < 6.00
67 | Cc1ccccc1-c1nc2ccccc2cc1Cn1nc(-c2ccc3nc(N)ccc3c2)c2c(N)ncnc21 [Compound 131] | 6.00 to 7.00
68 | Nc1ncnc2c1c(-c1cccc(O)c1)nn2Cc1nc2ccccc2nc1N1CCCC1 [Compound 105] | < 6.00
69 | Nc1nc2cc(-c3nn(Cc4cc5ccccc5nc4-c4ccccc4F)c4ncnc(N)c34)ccc2[nH]1 [Compound 152] | 6.00 to 7.00
70 | CN1CCN(c2nc3ccccc3nc2Cn2nc(-c3ccc4nc(N)sc4c3)c3c(N)ncnc32)CC1 [Compound 199] | 6.00 to 7.00
71 | CN1CCN(c2ncccc2Cn2nc(-c3cc(O)cc(F)c3)c3c(N)ncnc32)CC1 [Compound 200] | < 6.00
72 | Nc1nc2cc(-c3nn(Cc4cc5ccccc5nc4-c4ccccc4C(F)(F)F)c4ncnc(N)c34)ccc2[nH]1 [Compound 155] | < 6.00
73 | CC(C)N(C)c1nc2ccccc2cc1Cn1nc(-c2ccc3nc(N)sc3c2)c2c(N)ncnc21 [Compound 154] | > 7.00
